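96-well plates; 48 h exposure; 5 concentrations. Endpoints by linear interpolation between flanking doses. Not reached: highest tested concentration assigned. TGI: total growth inhibition.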
Columns and labels:
Experiment in all cases: NCI tumour cell line growth inhibition, 48 h
[1] = test system: 786-0 renal
[2] = test system: A498 renal
[3] = test system: A549 NSCLC
[4] = test system: ACHN renal
[5] = test system: CAKI-1 renal
[6] = test system: CCRF-CEM leukemia
[7] = test system: COLO 205 colon
[8] = test system: DLD-1 colon
[9] = test system: DMS 273 small cell lung
[10] = test system: EKVX NSCLC
[11] = test system: HCC-2998 colon
[12] = test system: HCT-116 colon
[13] = test system: HCT-15 colon
[14] = test system: HL-60(TB) leukemia
[15] = test system: HOP-18 NSCLC
[16] = test system: HOP-62 NSCLC
[17] = test system: HOP-92 NSCLC
[18] = test system: HT29 colon
[19] = test system: IGROV1 ovarian
[20] = test system: K-562 leukemia
[21] = test system: KM12 colon
[22] = test system: KM20L2 colon
[23] = test system: LOX IMVI melanoma
[24] = test system: LXFL 529 NSCLC
[25] = test system: M14 melanoma
[26] = test system: M19-MEL melanoma
[27] = test system: MALME-3M melanoma
[28] = test system: MOLT-4 leukemia
[29] = test system: NCI-H226 lung
[30] = test system: NCI-H23 lung
[31] = test system: NCI-H460 lung
[32] = test system: NCI-H522 lung
[33] = test system: OVCAR-3 ovarian
[34] = test system: OVCAR-4 ovarian
[35] = test system: OVCAR-5 ovarian
[36] = test system: OVCAR-8 ovarian
[37] = test system: RPMI-8226 leukemia
[38] = test system: RXF 393 renal
[39] = test system: SF-268 CNS
[40] = test system: SF-295 CNS
[41] = test system: SF-539 CNS
[42] = test system: SK-MEL-2 melanoma
[43] = test system: SK-MEL-28 melanoma
[44] = test system: SK-MEL-5 melanoma
[45] = test system: SK-OV-3 ovarian
[46] = test system: SN12C renal
[47] = test system: SNB-19 CNS
[48] = test system: SNB-75 CNS
[49] = test system: SNB-78 CNS
[50] = test system: SR leukemia
[51] = test system: TK-10 renal
[52] = test system: U251 CNS
[53] = test system: UACC-257 melanoma
[54] = test system: UACC-62 melanoma
[55] = test system: UO-31 renal
[56] = test system: XF 498 CNS
[57] = test system: BT-549 breast
[58] = test system: DU-145 prostate
[59] = test system: HS 578T breast
[60] = test system: MCF7 breast
[61] = test system: MDA-MB-231 breast
[62] = test system: MDA-MB-435
[63] = test system: MDA-N
[64] = test system: NCI/ADR-RES ovarian
[65] = test system: PC-3 prostate
[66] = test system: T-47D breast

## CCOC(=O)C1=C(OC(OCC)C([Se]c2ccccc2)C(C)C)CCC1 (configuration not stated)
[1]
  TGI: 20.6 µM
[2]
  TGI: > 100 µM
[3]
  TGI: > 100 µM
[4]
  TGI: 62 µM
[5]
  TGI: > 100 µM
[6]
  TGI: 27.8 µM
[7]
  TGI: 31.7 µM
[8]
  TGI: 33.8 µM
[9]
  TGI: 20 µM
[10]
  TGI: 46.7 µM
[11]
  TGI: > 100000 nM
[12]
  TGI: 26 µM
[13]
  TGI: 29.4 µM
[14]
  TGI: 11.2 µM
[15]
  TGI: 41.3 µM
[16]
  TGI: > 100 µM
[17]
  TGI: 51.1 µM
[18]
  TGI: 41.7 µM
[19]
  TGI: 52.4 µM
[20]
  TGI: > 100 µM
[21]
  TGI: > 100 µM
[22]
  TGI: 63.3 µM
[23]
  TGI: 6.93 µM
[24]
  TGI: 29.5 µM
[25]
  TGI: 43.6 µM
[26]
  TGI: 34.9 µM
[27]
  TGI: 81.9 µM
[28]
  TGI: 45.4 µM
[29]
  TGI: 37.4 µM
[30]
  TGI: 22.3 µM
[31]
  TGI: 31.4 µM
[32]
  TGI: 20.2 µM
[33]
  TGI: 40 µM
[34]
  TGI: 32.9 µM
[35]
  TGI: 59.4 µM
[36]
  TGI: 27.4 µM
[37]
  TGI: 38.5 µM
[38]
  TGI: 21.9 µM
[39]
  TGI: 20 µM
[40]
  TGI: 44.5 µM
[41]
  TGI: 30.8 µM
[42]
  TGI: 62 µM
[43]
  TGI: 39.4 µM
[44]
  TGI: 28.8 µM
[45]
  TGI: > 100 µM
[46]
  TGI: 25.1 µM
[47]
  TGI: > 100 µM
[48]
  TGI: 62.5 µM
[49]
  TGI: 38.8 µM
[50]
  TGI: 15.4 µM
[51]
  TGI: > 100 µM
[52]
  TGI: 16.6 µM
[53]
  TGI: 75.4 µM
[54]
  TGI: 33.6 µM
[55]
  TGI: 61 µM
[56]
  TGI: 26.4 µM

## Cc1c(C(=O)c2ccccc2)[n+](=O)c2cc(Cl)c(Cl)cc2n1[O-]
[1]
  TGI: 29.3 µM
[2]
  TGI: 33.8 µM
[3]
  TGI: 27.5 µM
[4]
  TGI: 28.5 µM
[57]
  TGI: 31.5 µM
[5]
  TGI: 14.1 µM
[6]
  TGI: 71.5 µM
[7]
  TGI: 33.5 µM
[58]
  TGI: 31.5 µM
[10]
  TGI: 26.3 µM
[11]
  TGI: 2900 nM
[12]
  TGI: 26.3 µM
[13]
  TGI: 4.56 µM
[14]
  TGI: 4.82 µM
[16]
  TGI: 29.7 µM
[17]
  TGI: 15.2 µM
[59]
  TGI: 31.2 µM
[18]
  TGI: 28.7 µM
[19]
  TGI: 5.16 µM
[20]
  TGI: 17.8 µM
[21]
  TGI: 23 µM
[23]
  TGI: 15.8 µM
[25]
  TGI: 7.7 µM
[60]
  TGI: 26.6 µM
[61]
  TGI: 25.9 µM
[62]
  TGI: 24.5 µM
[63]
  TGI: 25.9 µM
[28]
  TGI: 12.2 µM
[29]
  TGI: 7.59 µM
[30]
  TGI: 11.6 µM
[31]
  TGI: 30.9 µM
[64]
  TGI: 38 µM
[33]
  TGI: 25 µM
[34]
  TGI: 16.5 µM
[35]
  TGI: 31.8 µM
[36]
  TGI: 23.2 µM
[65]
  TGI: 59.5 µM
[37]
  TGI: 19.8 µM
[38]
  TGI: 19.2 µM
[39]
  TGI: 29.5 µM
[40]
  TGI: 28.7 µM
[41]
  TGI: 32.5 µM
[42]
  TGI: 21.3 µM
[43]
  TGI: 29.1 µM
[44]
  TGI: 28.6 µM
[45]
  TGI: 41.4 µM
[46]
  TGI: 30.5 µM
[47]
  TGI: 37.4 µM
[48]
  TGI: 15.8 µM
[50]
  TGI: 3.32 µM
[66]
  TGI: 14 µM
[51]
  TGI: 23.9 µM
[52]
  TGI: 29.9 µM
[53]
  TGI: 16.5 µM
[54]
  TGI: 25.1 µM
[55]
  TGI: 26.1 µM

Source: PubChem BioAssay (NCI)
